Patent US20220402950A1, “SUBSTITUTED BENZIMIDAZOLES AS PAD4 INHIBITORS” (BRISTOL-MYERS SQUIBB COMPANY, priority 2018, published 2022)

Target: human PAD4 (hPAD4) (Homo sapiens, UniProt Q9UM07)
Assay: RFMS Human PAD4 Functional Assay
Format: biochemical
Conditions: hPAD4 RFMS IC50, human PAD4, rapid-fire mass spectrum (RFMS) assay; 5 nM hPAD4, 250 μM BAEE
Procedure: RFMS Human PAD4 Functional Assay:
Compounds were solubilized in 100% DMSO to achieve a 10 mM compound concentration. Compound stock solutions were stored at RT. A series of dilutions were prepared in DMSO and mixed 8 times with 20 μL mixing volume. Final top concentration of compound in the assay is 50 μM.
0.13 μL of compound solution was added to 13 μL of 10 nM PAD4 in assay buffer. After 30 min 13 μl of 500 μM of BAEE was added in 25 mM hepes, pH 7.5, 5 mM NaCl, 1 mM DTT, 0.2 mg/ml BSA, 0.01% CHAPS, 50 μM Calcium, 5 μM TPEN was added and the reaction incubated for 90 min at 37° C. The enzymatic reaction was quenched by addition of 15 μl of 6.1N TCA, 100% Final Concentration is 20%, 35 μl of 8.5 mM phenyl glyoxal (final concentration 4 mM) is then added and the reaction is incubated for 30 min at 37° C.
After 30 minutes the plates are spun down to remove all precipitate. The enzyme reaction was quenched with an equal volume of methanol containing internal standard (modified citrulline). Samples were loaded onto the Rapid Fire RF300 system (Agilent) wherein they were first sipped for 1000 ms and then directly loaded to a C18 separations cartridge using a mixture of acetonitrile containing 0.01% formic acid for 3000 ms desalting. The flow rate of the mobile phase was 1.5 ml/min.
The dwell time for each transition was set at 200 ms, and the ESI voltage was used at 5500 with a source temperature of 400° C. Extracted ion peaks for each transition were integrated using the Rapid Fire Integrator software. Peak area of analyte was normalized with internal standard.).

Chain of human PAD4 (hPAD4) (Q9UM07 whole entry): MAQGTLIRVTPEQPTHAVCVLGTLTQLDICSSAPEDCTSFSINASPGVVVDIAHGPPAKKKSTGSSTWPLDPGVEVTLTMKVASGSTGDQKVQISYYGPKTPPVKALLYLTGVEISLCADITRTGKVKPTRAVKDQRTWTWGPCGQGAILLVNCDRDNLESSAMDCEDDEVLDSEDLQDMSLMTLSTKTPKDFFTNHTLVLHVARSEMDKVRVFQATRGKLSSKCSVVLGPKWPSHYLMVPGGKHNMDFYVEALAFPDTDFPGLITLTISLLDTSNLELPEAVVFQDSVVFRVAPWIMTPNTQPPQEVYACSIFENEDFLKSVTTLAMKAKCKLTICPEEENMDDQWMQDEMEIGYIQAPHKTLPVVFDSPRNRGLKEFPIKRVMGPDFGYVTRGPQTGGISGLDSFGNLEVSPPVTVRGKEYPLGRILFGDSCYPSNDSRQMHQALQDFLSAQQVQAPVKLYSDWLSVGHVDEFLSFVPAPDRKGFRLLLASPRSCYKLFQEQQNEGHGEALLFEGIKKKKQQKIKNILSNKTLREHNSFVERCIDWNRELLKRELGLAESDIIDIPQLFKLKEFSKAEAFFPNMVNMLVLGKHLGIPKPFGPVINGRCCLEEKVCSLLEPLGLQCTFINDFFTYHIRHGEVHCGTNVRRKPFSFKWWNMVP

SMILES | IC50
COc1cc(C(=O)N2C[C@H]3CC[C@@H]2[C@@H]3N)cc2nc(-c3cc4cccc(-c5ccc(O)nc5)c4n3CC3CC3)n(C)c12 [Example 197, ((1R,4R,7R)-7-amino-2-azabicyclo[2.2.1]heptan-2-yl)(2-(1-(cyclopropylmethyl)-7-(6-hydroxypyridin-3-yl)-1H-indol-2-yl)-7-methoxy-1-methyl-1H-benzo[d]imidazol-5-yl)methanone] | 120 nM
COc1cc(C(=O)N2C[C@H]3CC[C@@H]2[C@@H]3N)cc2nc(-c3cc4cccc(C5CN(C(C)=O)C5)c4n3C)n(Cc3cnn(C)c3)c12 [Example 214, 1-(3-(2-(5-((1R,4R,7R)-7-amino-2-azabicyclo[2.2.1]heptane-2-carbonyl)-7-methoxy-1-((1-methyl-1H-pyrazol-4-yl)methyl)-1H-benzo[d]imidazol-2-yl)-1-methyl-1H-indol-7-yl)azetidin-1-yl)ethan-1-one] | 155 nM
COc1cc(C(=O)N2C[C@H]3CC[C@@H]2[C@@H]3N)cc2nc(-c3cc4cccc(-c5ccc(C(N)=O)cc5)c4n3CC3CC3)n(C)c12 [Example 124, 4-(2-(5-((1R,4R,7R)-7-amino-2-azabicyclo[2.2.1]heptane-2-carbonyl)-7-methoxy-1-methyl-1H-benzo[d]imidazol-2-yl)-1-(cyclopropylmethyl)-1H-indol-7-yl)benzamide] | 25 nM
COc1cc(C(=O)N2CC3CCC2[C@@H]3N)cc2nc(-c3cc4cccc(-c5cnn(C6CCOCC6)c5)c4n3CC3CC3)n(C)c12 (stereo partly drawn) [Example 132, ((7R)-7-amino-2-azabicyclo[2.2.1]heptan-2-yl)(2-(1-(cyclopropylmethyl)-7-(1-(tetrahydro-2H-pyran-4-yl)-1H-pyrazol-4-yl)-1H-indol-2-yl)-7-methoxy-1-methyl-1H-benzo[d]imidazol-5-yl)methanone] | 179 nM
COc1cc(C(=O)N2C[C@H]3CC[C@@H]2[C@@H]3N)cc2nc(-c3cc4cccc(C5CC(C(=O)N6CC[C@@H](O)C6)C5)c4n3CC3CC3)n(C)c12 (single isomer, unassigned) [Example 51] | 48 nM

The remaining lines, values ahead:

IC50 | SMILES
181 nM | COc1cc(C(=O)N2C[C@@H]3CC[C@@H]2C3N)cc2nc(-c3cc4cccc(-c5ccccc5C#N)c4n3CC3CC3)n(C)c12 (stereo partly drawn) [Example 143, 2-(2-(5-((1R,4S)-7-amino-2-azabicyclo[2.2.1]heptane-2-carbonyl)-7-methoxy-1-methyl-1H-benzo[d]imidazol-2-yl)-1-(cyclopropylmethyl)-1H-indol-7-yl)benzonitrile]
38 nM | COc1cc(C(=O)N2C[C@H]3CC[C@@H]2[C@@H]3N)cc2nc(-c3cc4cccc(C5CN(C(=O)CC#N)C5)c4n3CC3CC3)n(C)c12 [Example 77, 3-[3-(2-{5-[(1R,4R,7R)-7-amino-2-azabicyclo[2.2.1]heptane-2-carbonyl]-7-methoxy-1-methyl-1H-1,3-benzodiazol-2-yl}-1-(cyclopropylmethyl)-1H-indol-7-yl)azetidin-1-yl]-3-oxopropanenitrile]
25 nM | COc1cc(C(=O)N2C[C@H]3CC[C@@H]2[C@@H]3N)cc2nc(-c3cc4cccc(C5CC(C(N)=O)C5)c4n3CC3CC3)n(C)c12 (single isomer, unassigned) [Example 45]
20 nM | COc1cccc(NC(=O)N2CCC(c3cccc4cc(-c5nc6cc(C(=O)N7C[C@H]8CC[C@@H]7[C@@H]8N)cc(OC)c6n5C)n(CC5CC5)c34)CC2)c1 [Example 248, 4-(2-(5-((1R,4R,7R)-7-amino-2-azabicyclo[2.2.1]heptane-2-carbonyl)-7-methoxy-1-methyl-1H-benzo[d]imidazol-2-yl)-1-(cyclopropylmethyl)-1H-indol-7-yl)-N-(3-methoxyphenyl)piperi-dine-1-carboxamide]

Same assay, conditions: human PAD4, rapid-fire mass spectrum (RFMS) assay; 5 nM hPAD4, 250 μM BAEE; read-out: hPAD4 RFMS IC50

IC50 | SMILES
127 nM | COc1cc(C(=O)N2C[C@H]3CC[C@@H]2[C@@H]3N)cc2nc(-c3cc4cccc(-c5ccccc5CO)c4n3CC3CC3)n(C)c12 [Example 181, ((1R,4R,7R)-7-amino-2-azabicyclo[2.2.1]heptan-2-yl)(2-(1-(cyclopropylmethyl)-7-(2-(hydroxymethyl)phenyl)-1H-indol-2-yl)-7-methoxy-1-methyl-1H-benzo[d]imidazol-5-yl)methanone]
